Experimental data taken from article PMC3710446 (Journal of pharmaceutical sciences, 2011).

What was measured:
SOPT2 [1] = test: Uptake of [3H]DADLE in RGC-5 cells; conditions: DADLE 25 nM, 30 min of incubation
SOPT1 = test: Uptake of [3H]deltorphin II in RGC-5 cells and influence of tripeptides; conditions: RGC-5 cells, deltorphin II 25 nM
SOPT2 [2] = test: Influence of compounds on [3H]DADLE uptake in RGC-5 cells; assay type: cell-based, rat; conditions: compound 1 mM; for [3H]DADLE uptake in the presence of compound, % of control (Table 2): [3H]DADLE 10 nM, 30 min, control = 100; for stimulation of [3H]DADLE uptake: p < 0.001
RGC-5 cells = test: Uptake of FITC-labeled HIV-1 Tat47–57 in RGC-5 cells; assay type: cell-based, rat; conditions: FITC-Tat 25 nM, 15 min, NaCl-containing buffer, confocal microscopy

Compound	[3H]DADLE uptake in the presence of compound, % of control (Table 2) (SOPT2 [2]) [%]	stimulation of [3H]DADLE uptake (SOPT2 [2]) [%]	other results
CC(C)C[C@@H](NC(=O)[C@H](Cc1ccccc1)NC(=O)CNC(=O)[C@@H](C)NC(=O)[C@@H](N)Cc1ccc(O)cc1)C(=O)O [DADLE, [D-Ala^2, D-Leu^5]-Enkephalin]			uptake in the presence of Na+ relative to uptake in the absence of Na+ (SOPT2 [1]): 2–3 times
CC(C)[C@H](NC(=O)[C@H](CCC(=O)O)NC(=O)[C@H](Cc1ccccc1)NC(=O)[C@@H](C)NC(=O)[C@@H](N)Cc1ccc(O)cc1)C(=O)N[C@H](C(=O)NCC(N)=O)C(C)C [Deltorphin II]			uptake of deltorphin II (SOPT1; absence of Na+): 1.1 ± 0.1 pmol/mg of protein/30 min; uptake of deltorphin II (SOPT1; presence of Na+): 3.6 ± 0.2 pmol/mg of protein/30 min
C=CCN1CC[C@]23c4c5ccc(O)c4O[C@H]2C(=O)CC[C@@]3(O)[C@H]1C5 [Naloxone, naloxone]	133	33	
O=C1CC[C@@]2(O)[C@H]3Cc4ccc(O)c5c4[C@@]2(CCN3CC2CC2)[C@H]1O5 [Naltrexone, naltrexone]	150	50	
FITC-Tat47–57: Fluorescein isothiocyanate-conjugated Tat47–57 peptide			cellular uptake of FITC-labeled peptide (cell-associated green fluorescence) (RGC-5 cells): enters RGC-5 cells
